Measured values as given in US9987277B2, “Carboxamide 4-[(4-pyridyl)amino] pryimidines for the treatment of hepatitis C” (Janssen Sciences Ireland UC, priority 2006, dated 2018).

These compounds were tested on HCV type 1b replicon (NS3-NS5B) in Huh-7 luc/neo cells (assay: HCV replicon assay (Huh-Luc luciferase)). Settings: Hepatitis C virus, Huh-7, 72 h, three days incubation, luciferase activity.
Type: cell-based
Text: The compounds of formula (I) were examined for activity in the inhibition of HCV RNA replication in a cellular assay. […] The cellular assay was based on a bicistronic expression construct, as described by Lohmann et al. (1999) Science vol. 285 pp. 110-113 with modifications described by Krieger et al. (2001) Journal of Virology 75: 4614-4624, in a multi-target screening strategy. In essence, the method was as follows.
The assay utilized the stably transfected cell line Huh-7 luc/neo (hereafter referred to as Huh-Luc). This cell line harbors an RNA encoding a bicistronic expression construct comprising the wild type NS3-NS5B regions of HCV type 1b translated from an Internal Ribosome Entry Site (IRES) from encephalomyocarditis virus (EMCV), preceded by a reporter portion (FfL-luciferase), and a selectable marker portion (neo^R, neomycine phosphotransferase). The construct is bordered by 5′ and 3′ NTRs (non-translated regions) from HCV type 1b. Continued culture of the replicon cells in the presence of G418 (neo^R) is dependent on the replication of the HCV RNA. The stably transfected replicon cells that express HCV RNA, which replicates autonomously and to high levels, encoding inter alia luciferase, are used for screening the antiviral compounds.
The replicon cells were plated in 384 well plates in the presence of the test and control compounds which were added in various concentrations. Following an incubation of three days, HCV replication was measured by assaying luciferase activity (using standard luciferase assay substrates and reagents and a Perkin Elmer ViewLux™ ultraHTS microplate imager). Replicon cells in the control cultures have high luciferase expression in the absence of any inhibitor. The inhibitory activity of the compound on luciferase activity was monitored on the Huh-Luc cells, enabling a dose-response curve for each test compound. EC50 values were then calculated, which value represents the amount of the compound required to decrease by 50% the level of detected luciferase activity, or more specifically, the ability of the genetically linked HCV replicon RNA to replicate.
The following Table 1 lists compounds that were tested for activity in the inhibition of HCV RNA replication in a cellular assay according to the procedure described above. Table 1 provides as well structure characterization data for the compounds of formula (I) as described herein. […] In each case, the expected parent ion was observed, and the Table further provides the LC conditions under which the mass spectrum was measured as well as the retention time of the observed product.

Structure (SMILES)	EC50 [µM]
COc1cnc(-c2cc(Cl)ccc2F)nc1Nc1ccncc1C(=O)NCCCN1CCOCC1 [compound 9]	1.1
O=C(NC1CC1)c1cnccc1Nc1nc(-c2cc(Cl)ccc2F)ncc1C1CCCC1 [compound 6]	12.7
COc1cnc(-c2cc(Cl)ccc2F)nc1Nc1ccncc1C(=O)NCCNCC(C)O (stereo not drawn) [compound 11]	1.14
COc1cnc(-c2cc(Cl)ccc2F)nc1Nc1ccncc1C(=O)NC[C@H]1CCCO1 [compound 3]	2.64
COc1cnc(-c2cc(Cl)ccc2F)nc1Nc1ccncc1C(=O)NCCCn1ccnc1 [compound 5]	0.921
COc1cnc(-c2cc(Cl)ccc2F)nc1Nc1ccncc1C(=O)NCCCN1CCCCC1C (stereo not drawn) [compound 13]	0.55
COc1cnc(-c2cc(Cl)ccc2F)nc1Nc1ccncc1C(=O)NCCNCCO [compound 10]	1.48
COc1cnc(-c2cc(Cl)ccc2F)nc1Nc1ccncc1C(=O)NCCN [compound 14]	3.67
CCOC(=O)CNC(=O)c1cnccc1Nc1nc(-c2cc(Cl)ccc2F)ncc1OC [compound 4]	4.62
COc1cnc(-c2cc(Cl)ccc2F)nc1Nc1ccncc1C(=O)NCCCN1CCCC1=O [compound 1]	0.084
O=C(NCCO)c1cnccc1Nc1nc(-c2cc(Cl)ccc2F)ncc1C1CCCC1 [compound 8]	16.4
COc1cnc(-c2cc(Cl)ccc2F)nc1Nc1ccncc1C(=O)NCC(F)(F)F [compound 2]	1.16
